Literature values in patent US9839609B2 (priority 2009, dated 2017).

Tests used:
[1] = chronic administration
[2] = in vivo
[3] = oral, rats

| Compound | dose chronically administered without any serious adverse effects [1] [g/kg daily] | fraction of DMSO metabolized into MSM in the body [2] | LD50 [3] |
| --- | --- | --- | --- |
| C[S+](C)[O-] [DMSO, Dimethyl sulfoxide] | 5 | Approximately 17% | – |
| CS(C)(=O)=O [MSM, Methylsulfonylmethane] | – | – | approximately 17 g/kg |
